Test results from PubChem BioAssay (NCI).
Values joined by “and” are separate entries in the source; they are usually repeats but may differ in a detail not shown here. Equal values may be shown once.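 These data come from cells grown in 96-well plates and exposed to compound for 48 hours at five concentrations. GI50 = concentration required for 50% inhibition of growth. TGI marks complete inhibition of growth.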

Columns and labels:
Experiment in all cases: NCI tumour cell line growth inhibition, 48 h
EKVX NSCLC = system: EKVX NSCLC
SK-MEL-5 melanoma = system: SK-MEL-5 melanoma
KM12 colon = system: KM12 colon
UACC-62 melanoma = system: UACC-62 melanoma
HL-60(TB) leukemia = system: HL-60(TB) leukemia
OVCAR-8 ovarian = system: OVCAR-8 ovarian
UO-31 renal = system: UO-31 renal
MALME-3M melanoma = system: MALME-3M melanoma
HOP-92 NSCLC = system: HOP-92 NSCLC
HCC-2998 colon = system: HCC-2998 colon

Structure (SMILES)	GI50 (EKVX NSCLC)	TGI (EKVX NSCLC) [µM]	GI50 (SK-MEL-5 melanoma)	TGI (SK-MEL-5 melanoma)	GI50 (KM12 colon) [µM]	TGI (KM12 colon) [µM]	GI50 (UACC-62 melanoma)	TGI (UACC-62 melanoma)	GI50 (HL-60(TB) leukemia)	TGI (HL-60(TB) leukemia)	GI50 (OVCAR-8 ovarian)	TGI (OVCAR-8 ovarian) [µM]	GI50 (UO-31 renal)	TGI (UO-31 renal)	GI50 (MALME-3M melanoma)	TGI (MALME-3M melanoma) [µM]	GI50 (HOP-92 NSCLC)	TGI (HOP-92 NSCLC)	GI50 (HCC-2998 colon)	TGI (HCC-2998 colon)
COCCNC(=O)c1ccc(-c2nc3ccc4[nH]ncc4c3c3c2CCCC3)cc1	1.61 µM	43.2	3.39 µM	26.3 µM	0.741	42.5	1.58 µM	13.1 µM	2.43 µM	7.33 µM	2.64 µM	> 100	1.58 µM	5.74 µM	2.74 µM	18	1.59 µM	78.9 µM	2.98 µM	> 100 µM
CN(C)c1ccc(O)c2c1C[C@H]1C[C@H]3[C@H](N(C)C)C(=O)C(C(N)=O)=C(O)[C@@]3(O)C(=O)C1=C2O	6.7 µM	> 100	3.38 µM	14.7 µM	6.29	27.4	3.35 µM	16.9 µM	7.44 µM	40.4 µM	5.11 µM	> 100	3.65 µM	79.8 µM	7.51 µM	33.3	3.6 µM	26.9 µM	4.19 µM	17.8 µM
c1ccc(SC(CCCCOC2CCCCO2)Sc2ccccc2)cc1 (centres undefined)	–	> 100	–	> 100 µM	–	> 100	–	> 100 µM	–	47.5 µM	–	> 100	–	76.5 µM	–	> 100	–	> 100 µM	–	> 100 µM
Cc1ccc(S(=O)(=O)c2c3[nH]c4ccccc4nc3n3c2nc2ccccc23)cc1	–	> 100	–	> 100 µM	–	> 100	–	> 100 µM	–	> 100 µM	–	> 100	–	> 100 µM	–	> 100	–	> 100 µM	–	> 100 µM
N#Cc1nc2cc(F)c(F)cc2nc1-c1ccc(Cl)cc1	10.4 µM	> 69.4	14.4 µM	40.6 µM	51.9	> 100	0.645 µM	7.17 µM	3.43 µM	> 28.2 µM	2.09 µM	4.76	12.2 µM	38.1 µM	15.8 µM	39.1	0.0614 µM	15 µM	3.93 µM	17.6 µM
COc1ccc2c(c1)OC(N)=C(C#N)C2c1ccc(F)cc1 (centres undefined)	5.09 µM	> 100	2.49 µM	18.5 µM	0.656	25.8	0.571 µM	> 100 µM	0.45 µM	7.15 µM	4.49 µM	> 100	5.64 µM	> 100 µM	12.9 µM	77.9	8.52 µM	75.5 µM	6.44 µM	> 100 µM
N#CC1=C(N)Oc2c(sc3c(F)cccc23)C1c1ccc(F)cc1 (centres undefined)	3.24 µM	20.2	0.657 µM	14.3 µM	0.465	12.8	0.551 µM	14.9 µM	0.284 µM	2.74 µM	1.61 µM	22.5	1.27 µM	12.1 µM	0.602 µM	22.2	2.36 µM	13.4 µM	1.62 µM	8.58 µM
OC(CNc1ccnc2cc(Cl)ccc12)CNC1CCCCC1 (centres undefined)	6.15 µM	27	1.77 µM	3.34 µM	13	27.3	2.15 µM	5.2 µM	10.9 µM	28.7 µM	5.07 µM	19.9	2.22 µM	11 µM	1.89 µM	3.8	1.42 µM	7.12 µM	3.79 µM	11 µM
Clc1ccc2c(c1)-c1ccccc1C1=NCCN12	2.25 µM	9.09	1.56 µM	2.94 µM	2.56	7.79	1.6 µM	3.48 µM	2.43 µM	5.47 µM	1.22 µM	5.4	1.28 µM	2.8 µM	1.77 µM	4.17	1.19 µM	3.29 µM	1.87 µM	3.76 µM
CC(C)(c1ccc(OC#N)cc1)c1ccc(OC#N)cc1	–	> 100	–	> 100 µM	–	> 100	–	> 100 µM	–	> 77.7 µM	–	> 100	–	> 100 µM	–	> 100	–	> 100 µM	–	> 100 µM
CS/C(c1ccccc1)=[N+](/C)[O-]	–	> 100	–	> 100 µM	–	> 100	–	> 100 µM	–	> 100 µM	–	> 100	–	> 100 µM	–	> 100	–	> 100 µM	–	> 100 µM
COc1cccc2c(=O)c3c(sc12)c(NCCN(C)C)nc1ccccc13	1.51 µM	2.99	1.71 µM	3.17 µM	1.59	3.1	1.72 µM	3.24 µM	1.64 µM	3.42 µM	1.26 µM	2.93	0.461 µM	2 µM	1.83 µM	3.59	1.03 µM	3.53 µM	1.47 µM	3.02 µM
COc1cc(/C=C2/C(=O)NC(Cc3cc(OC)c(OC)c(C)c3OC)C(=O)N2Cc2ccccc2)c(OC)c(C)c1OC (centres undefined)	–	> 100	–	> 100 µM	–	> 100	–	> 100 µM	–	53.3 µM	–	> 100	–	> 100 µM	–	> 100	–	71.9 µM	–	> 100 µM
Cc1ccc(S(=O)(=O)Nc2nc3ccccc3nc2Nc2ccc3nsnc3c2)cc1	4.03 µM and 3.6 µM	> 100	2.65 µM and 1.88 µM	11.6 µM and 7.46 µM	4.3	> 100	1.81 µM and 2.02 µM	10.4 µM and > 28.2 µM	2.96 µM and 2.86 µM	14 µM and > 30 µM	4.3 µM and 4.19 µM	> 100	1.94 µM and 1.58 µM	19 µM and 6.49 µM	2.18 µM and 1.34 µM	–	1.89 µM and 0.294 µM	8.23 µM and 3.73 µM	3.47 µM and 3.67 µM	42.9 µM and > 100 µM
